Measured values taken from patent US20250231157A1, “METHOD FOR DETERMINING THE PARTITION OF NAPHTHENIC ACIDS FROM A PRODUCTION WATER MIMICKING SYSTEM AND MIMICKING SYSTEM” (PETRÓLEO BRASILEIRO S.A. – PETROBRAS, priority 2023, published 2025).
Where “and” joins values, the source holds several entries; their conditions need not be identical. Equal entries are not always repeated.

Tests used:
[1] = Partition equilibrium under the influence of salinity (NaCl), glass reactor, neutralization titration; type: physicochemical; details: Salinity 0 (%, m · m^−1) NaCl
[2] = Partition equilibrium in reactor pressurized with CO2, in presence and absence of alkalinity (NaHCO3, Na2CO3), back titration
Experimental: In the initial tests, 100 mL of heptol and 300 mL of water (with or without salinity) were used, with the addition of acidic species in the organic phase, in order to verify migration to the aqueous phase. As a rule, the system was kept under agitation at 500 rpm for 8 min, followed by rest for 10 min and, finally, collection of 50.0 mL aliquots of the aqueous phase for titrimetric analysis.
A 316 stainless steel alloy reactor (Parr®) (capacity for 600 mL and operational up to 20 MPa pressure) was used. For this purpose, a temperature range between 25° C. and 80° C. and pressure between 0.1 MPa and 1.0 MPa were used, and the reactor was pressurized with CO2. Thus, the results were compared (in terms of migration of the acidic species (%, mol) by means of back titrations) and the influence of pressure and temperature on the partition was estimated, as well as possible synergistic effects with the sources of alkalinity added to the aqueous phase.

[3] = Partition equilibrium in the presence of surfactants (TBA, CTA, TMA); type: physicochemical; details: for Increase in migration to the aqueous phase with CTA: surfactant CTA, 1000 mg·L^−1
Excerpt: The presence of chemical compounds usually added in the chain of unit operations of oil extraction and production, such as demulsifiers and surfactants, can affect the partition equilibrium of species in this water/oil system. In order to understand the extent of this effect, as well as discern the relevance of the chemical structure on this effect, the following items were chosen: • Dissolvan 961 (Clariant), composed of oil hydrocarbons (CAS 918-811-1) and ethanol (CAS 64-17-5); • Dissolvan 974 (Clariant), composed of EO-PO block polymer poly adducts and Bisphenol-A-diglycidyl ether (CAS 68123-18-2) and ethanol (CAS 64-17-5); • Tetrabutylammonium chloride (CAS 1112-67-0), 97% purity; • Cetyltrimethylammonium chloride (CAS 112-02-7), 25% in water; and • Trimethylammonium chloride (CAS 593-81-7), 98% purity.
For this study, the experiments (in triplicate) used between 100.0 and 1000.0 mg·L^−1 of each compound, comparing the results with control tests (absence of the component), all with constant salinity at 3.5% (m·v^−1). Finally, neutralization titration with a standardized NaOH titrant solution was used to determine the effect on the partition equilibrium for four acidic species (the same as in the other examples, except for dicyclohexylacetic acid).
Considering the study with surfactants, the (individual) addition of three species to the control system was evaluated (tetrabutylammonium chloride (TBA), tetramethylammonium chloride (TMA) and cetyltrimethylammonium chloride (CTA)). For this purpose, the surfactants have distinct chemical structures, namely the size of the side chain, and their eventual effect on the partition equilibrium of the acidic species was evaluated.

[4] = Partition equilibrium (migration to aqueous phase) heptol/water under pressure and temperature, central composite design, potentiometric titration; type: physicochemical; details: for Migration, Predicted: model value
Experimental: Three multivariate experimental designs (central composite designs) were performed in which the variables pressure (up to 1 MPa) and temperature (between 25° C. and 80° C.) were considered independent variables, with the migration of three acidic species as the response factor: benzoic, pentanoic and cyclohexanepentanoic acid. For this purpose, 5 levels were defined and gave rise to 10 experiments for each acidic species (Table 4), added to two control experiments (with higher pressure and temperature, as well as in the absence of pressure and at room temperature).
The experiments were performed with constant salinity of 3.5% (m·v^−1), constant heptol fraction (70:30, for heptane and toluene), and acidic species concentration of 0.03 M for benzoic and pentanoic acid, and 0.01 M for cyclohexanepentanoic acid. The results were evaluated with 95% confidence, using a response surface to estimate the maximum observable effect in each case, provided that the mathematical correlation was equal to or greater than R^2: 0.75.

[5] = Control experiments: availability of the species in alkaline aqueous medium without using the reactor; type: physicochemical; details: acid solubilized directly in aqueous phase, no reactor
Experimental: Previously, the back titration procedure was internalized and optimized (Example 1), ensuring that the reproducibility of the measurements was adequate (standard deviation values below 10%, for example) and that the recoveries were close to what was expected based on the purity of the reagents (i.e., close to or above 90%). […] Control experiments were performed (measuring the availability of the species in an aqueous medium, without using the reactor) by solubilizing the organic acid directly in the aqueous phase and titrating a 10.0 mL aliquot; the same way, experiments were performed in the reactor based on the standardization of heptol and salinity already discussed (3.5%).

[6] = 25° C. and 1.0 MPa CO2, no alkalinity
[7] = 80° C. and 1.0 MPa CO2, no alkalinity
[8] = Na2CO3 + NaHCO3, 25° C. and 0.1 MPa
[9] = Na2CO3 + NaHCO3, 25° C. and 1.0 MPa CO2
[10] = Na2CO3 + NaHCO3, 80° C. and 1.0 MPa CO2
[11] = Reference (heptol + 3.5% NaCl), no alkalinity
[12] = Absence of surfactant, salinity 3.5%
[13] = CTA100 (cetyltrimethylammonium chloride 100 mg · L^−1)
[14] = TBA100 (tetrabutylammonium chloride 100 mg · L^−1)
[15] = TMA100 (trimethylammonium chloride 100 mg · L^−1)
[16] = 20 °C, 0.1 MPa (experiment 12, control)
[17] = 38 °C, 0.25 MPa (experiment 1), heptol 70:30, 3.5% salinity
[18] = 52 °C, 0.5 MPa (experiments 9 and 10)
[19] = 52 °C, 0.5 MPa (experiments 9 and 10, centre point)
[20] = 80 °C, 1 MPa (experiment 11, control)
[21] = Na2CO3 + NaHCO3 (3.48×10^−5 mol)

## O=C(O)c1ccccc1 [Benzoic Acid, benzoic acid]
[1]
  Migration: 82.9 %, mol
[2]; [6]
  Migration: 64.4 % mol
[2]; [7]
  Migration: 59.3 % mol
[2]; [8]
  Migration: 49.3 % mol
[2]; [9]
  Migration: 100 % mol
[2]; [10]
  Migration: 88.3 % mol
[2]; NaHCO3, 25° C. and 0.1 MPa
  Migration: 53.6 % mol
[2]; NaHCO3, 25° C. and 1.0 MPa CO2
  Migration: 93.3 % mol
[2]; NaHCO3, 80° C. and 1.0 MPa CO2
  Migration: 88.9 % mol and 88.6 % mol
[2]; [11]
  Migration: 82.0±3.0 % mol and 82 % mol
[3]; [12]
  Migration: 82.0 %, mol
[3]; [13]
  Migration: 57.1 %, mol
[3]; CTA1000 (1000 mg · L^−1)
  Migration: 66.3 %, mol
[3]; [14]
  Migration: 55.5 %, mol
[3]; TBA1000 (1000 mg · L^−1)
  Migration: 54.8 %, mol
[3]; [15]
  Migration: 63.4 %, mol
[3]; TMA1000 (1000 mg · L^−1)
  Migration: 63.7 %, mol
[3]
  Increase in migration to the aqueous phase with CTA: ~10%
[3]; surfactant TBA, different concentrations
  Effect of TBA on migration to the aqueous phase: no significant effect
[3]; surfactant TMA, from 100 mg·L^−1
  Increase in affinity for the hydrophilic phase with TMA: approximately 10%
[4]; [16]
  Migration, Measured: 57.0 %, mol
[4]; 25 °C, 0.5 MPa (experiment 5)
  Migration, Increment (related to control): 2.7 %, mol
  Migration, Measured: 58.6 %, mol
  Migration, Predicted: 57.5 %, mol
[4]; 38 °C, 0.25 MPa (experiment 1)
  Migration, Increment (related to control): 6.9 %, mol
  Migration, Predicted: 62.5 %, mol
[4]; [17]
  Migration, Measured: 61.0 %, mol
[4]; 38 °C, 0.75 MPa (experiment 3)
  Migration, Increment (related to control): 4.6 %, mol
  Migration, Measured: 59.7 %, mol
  Migration, Predicted: 62 %, mol
[4]; 52 °C, 0.1 MPa (experiment 7)
  Migration, Increment (related to control): 16.4 %, mol
  Migration, Measured: 66.4 %, mol
  Migration, Predicted: 66.1 %, mol
[4]; [18]
  Migration, Increment (related to control): 14.5 %, mol and 14.3 %, mol
  Migration, Predicted: 66.6 %, mol
[4]; [19]
  Migration, Measured: 65.3 %, mol and 65.2 %, mol
[4]; 52 °C, 1 MPa (experiment 8)
  Migration, Increment (related to control): 16.8 %, mol
  Migration, Measured: 66.7 %, mol
  Migration, Predicted: 65.5 %, mol
[4]; 66 °C, 0.25 MPa (experiment 2)
  Migration, Increment (related to control): 21.2 %, mol
  Migration, Measured: 69.2 %, mol
  Migration, Predicted: 69.8 %, mol
[4]; 66 °C, 0.75 MPa (experiment 4)
  Migration, Increment (related to control): 19.8 %, mol
  Migration, Measured: 68.4 %, mol
  Migration, Predicted: 69.8 %, mol
[4]; 80 °C, 0.5 MPa (experiment 6)
  Migration, Increment (related to control): 27.9 %, mol
  Migration, Measured: 73.0 %, mol
  Migration, Predicted: 72.7 %, mol
[4]; 80 °C, 1 MPa (experiment 11)
  Migration, Increment (related to control): 26.3 %, mol
  Migration, Predicted: 66.6 %, mol
[4]; [20]
  Migration, Measured: 72.1 %, mol
[5]; [21]
  Availability (reference value): 72.2 % mol
[5]; NaHCO3 (3.45×10^−5 mol)
  Availability (reference value): 83.1 % mol

## O=C(O)CCCCC1CCCCC1 [Cyclohexanepentanoic Acid, cyclohexanepentanoic acid]
[1]
  Migration: 4.9 %, mol
[2]; [6]
  Migration: not quantifiable
[2]; [7]
  Migration: not quantifiable
[2]; [8]
  Migration: 71.1 % mol
[2]; [9]
  Migration: 100.0 % mol
[2]; [10]
  Migration: 100.0 % mol
[2]; NaHCO3, 25° C. and 0.1 MPa
  Migration: 82.7 % mol
[2]; NaHCO3, 25° C. and 1.0 MPa CO2
  Migration: 100.0 % mol
[2]; NaHCO3, 80° C. and 1.0 MPa CO2
  Migration: 100.0 % mol
[2]; [11]
  Migration: 4.9 % mol and 4.3 % mol
[3]; [12]
  Migration: 4.9 %, mol
[3]; [13]
  Migration: 2.1 %, mol
[3]; CTA1000 (1000 mg · L^−1)
  Migration: 38.9 %, mol
[3]; [14]
  Migration: 18.5 %, mol
[3]; TBA1000 (1000 mg · L^−1)
  Migration: 18.4 %, mol
[3]; [15]
  Migration: 0.0 %, mol
[3]; TMA1000 (1000 mg · L^−1)
  Migration: 0.0 %, mol
[3]
  Increase in migration to the aqueous phase with CTA: above 700%
[3]; surfactant TBA, noticeable from 100 mg·L^−1
  Increase in the tendency to migrate to the aqueous phase with TBA: 370%
[3]; surfactant TMA
  Effect of TMA on partition equilibrium: migration tending to zero
[4]; [16]
  Migration, Measured: 4.0 %, mol
[4]; 25 °C, 0.5 MPa (experiment 5)
  Migration, Increment (related to control): −39.73 %, mol
  Migration, Measured: 2.4 %, mol
  Migration, Predicted: 4.0 %, mol
[4]; 38 °C, 0.25 MPa (experiment 1)
  Migration, Increment (related to control): −42.22 %, mol
  Migration, Predicted: 1.7 %, mol
[4]; [17]
  Migration, Measured: 2.3 %, mol
[4]; 38 °C, 0.75 MPa (experiment 3)
  Migration, Increment (related to control): 104.3 %, mol
  Migration, Measured: 8.2 %, mol
  Migration, Predicted: 5.1 %, mol
[4]; 52 °C, 0.1 MPa (experiment 7)
  Migration, Increment (related to control): −29.8 %, mol
  Migration, Measured: 2.8 %, mol
  Migration, Predicted: 1.9 %, mol
[4]; [19]
  Migration, Measured: 2.6 %, mol and 3.1 %, mol
[4]; 52 °C, 1 MPa (experiment 8)
  Migration, Increment (related to control): 76.99 %, mol
  Migration, Measured: 7.1 %, mol
  Migration, Predicted: 8.6 %, mol
[4]; 66 °C, 0.25 MPa (experiment 2)
  Migration, Increment (related to control): −37.25 %, mol
  Migration, Measured: 2.5 %, mol
  Migration, Predicted: 4.4 %, mol
[4]; 66 °C, 0.75 MPa (experiment 4)
  Migration, Increment (related to control): 106.79 %, mol
  Migration, Measured: 8.3 %, mol
  Migration, Predicted: 7.7 %, mol
[4]; 80 °C, 0.5 MPa (experiment 6)
  Migration, Increment (related to control): 157.42 %, mol
  Migration, Measured: 10.3 %, mol
  Migration, Predicted: 9.3 %, mol
[4]; 80 °C, 1 MPa (experiment 11)
  Migration, Increment (related to control): −34.77 %, mol
  Migration, Predicted: 8.6 %, mol
[4]; [20]
  Migration, Measured: 2.6 %, mol
[4]; [18]
  Migration, Predicted: 3.5 %, mol
[5]; [21]
  Availability (reference value): 100 % mol
[5]; NaHCO3 (3.45×10^−5 mol)
  Availability (reference value): 100 % mol
